Laboratory results reported in the supplement of paper PMC11061612.

Key:
SG3199 = compound: CC1=CN2[C@@H](C1)C=NC3=CC(=C(C=C3C2=O)OC)OCCCCCOC4=C(C=C5C(=C4)N=C[C@@H]6CC(=CN6C5=O)C)OC [SG3199]; conditions: max 0.001 µM
How it was run: (§1)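 After 24 hours at 37°C and 5% CO2 in 1536-well plates holding 7.5 μl of DMEM/F12 or RPMI with 10% FBS, cancer cell lines were dosed for 72 hours, with final DMSO typically 0.2%. Viability came from CellTiter-Glo 2.0 luminescence, scaled between the means of blank wells and DMSO wells. A non-linear mixed effects model fitted a two-parameter logistic curve to each dose response to give the single-agent IC50.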

Venetoclax = compound: CC1(C)CCC(CN2CCN(c3ccc(C(=O)NS(=O)(=O)c4ccc(NCC5CCOCC5)c([N+](=O)[O-])c4)c(Oc4cnc5[nH]ccc5c4)c3)CC2)=C(c2ccc(Cl)cc2)C1 [Venetoclax]; conditions: max 1 µM
How it was run: as §1

Taselisib = compound: Cc1nc(-c2cn3c(n2)-c2ccc(-c4cnn(C(C)(C)C(N)=O)c4)cc2OCC3)n(C(C)C)n1 [Taselisib]; conditions: max 10 µM
How it was run: as §1

AZD0156 = compound: CN(C)CCCOc1ccc(-c2ccc3ncc4c(c3c2)n(C2CCOCC2)c(=O)n4C)cn1 [AZD0156]; conditions: max 3 µM
How it was run: as §1

AZD8186 = compound: C[C@@H](Nc1cc(F)cc(F)c1)c1cc(C(=O)N(C)C)cc2c(=O)cc(N3CCOCC3)oc12 [AZD8186]; conditions: max 3 µM
How it was run: as §1

AZD7648 = compound: Cc1cc2ncnn2cc1Nc1ncc2c(n1)n(C1CCOCC1)c(=O)n2C [AZD7648]; conditions: max 10 µM
How it was run: as §1

Capivasertib = compound: C1CN(CCC1(C(=O)N[C@@H](CCO)C2=CC=C(C=C2)Cl)N)C3=NC=NC4=C3C=CN4 [Capivasertib]; conditions: max 10 µM
How it was run: as §1

AZD5991 = compound: Cc1c2c(nn1C)CSCc1cc(n(C)n1)CSc1cc(c3ccccc3c1)OCCCc1c(C(=O)O)n(C)c3c-2c(Cl)ccc13 [AZD5991]; conditions: max 1 µM
How it was run: as §1

AZD6738 = compound: C[C@@H]1COCCN1C2=NC(=NC(=C2)C3(CC3)[S@](=N)(=O)C)C4=C5C=CNC5=NC=C4 [AZD6738]; conditions: max 10 µM
How it was run: as §1

Alisertib = compound: COc1cc(Nc2ncc3c(n2)-c2ccc(Cl)cc2C(c2c(F)cccc2OC)=NC3)ccc1C(=O)O [Alisertib]; conditions: max 10 µM
How it was run: as §1

Gefitinib = compound: COc1cc2ncnc(Nc3ccc(F)c(Cl)c3)c2cc1OCCCN1CCOCC1 [Gefitinib]; conditions: max 10 µM
How it was run: as §1

AZD5153 = compound: COc1nnc2ccc(N3CCC(c4ccc(OCCN5CCN(C)C(=O)[C@H]5C)cc4)CC3)nn12 [AZD5153]; conditions: max 1 µM
How it was run: as §1

Crizotinib = compound: C[C@@H](Oc1cc(-c2cnn(C3CCNCC3)c2)cnc1N)c1c(Cl)ccc(F)c1Cl [Crizotinib]; conditions: max 10 µM
How it was run: as §1

SN-38 = compound: CCc1c2c(nc3ccc(O)cc13)-c1cc3c(c(=O)n1C2)COC(=O)[C@]3(O)CC [SN-38]; conditions: max 0.3 µM
How it was run: as §1

Dasatinib = compound: CC1=C(C(=CC=C1)Cl)NC(=O)C2=CN=C(S2)NC3=CC(=NC(=N3)C)N4CCN(CC4)CCO [Dasatinib]; conditions: max 2 µM
How it was run: as §1

Savolitinib = compound: C[C@@H](c1ccc2nccn2c1)n1nnc2ncc(-c3cnn(C)c3)nc21 [Savolitinib]; conditions: max 1 µM
How it was run: as §1

Palbociclib = compound: CC(=O)c1c(C)c2cnc(Nc3ccc(N4CCNCC4)cn3)nc2n(C2CCCC2)c1=O [Palbociclib]; conditions: max 10 µM
How it was run: as §1

AZD2811 = compound: CCN(CCO)CCCOc1ccc2c(Nc3cc(CC(=O)Nc4cccc(F)c4)[nH]n3)ncnc2c1 [AZD2811]; conditions: max 1 µM
How it was run: as §1

AZD1775 = compound: C=CCn1c(=O)c2cnc(Nc3ccc(N4CCN(C)CC4)cc3)nc2n1-c1cccc(C(C)(C)O)n1 [AZD1775]; conditions: max 3 µM
How it was run: as §1

Lapatinib = compound: CS(=O)(=O)CCNCc1ccc(-c2ccc3ncnc(Nc4ccc(OCc5cccc(F)c5)c(Cl)c4)c3c2)o1 [Lapatinib]; conditions: max 10 µM
How it was run: as §1

AZD1390 = compound: CC(C)n1c(=O)n(C)c2cnc3cc(F)c(-c4ccc(OCCCN5CCCCC5)nc4)cc3c21 [AZD1390]; conditions: max 0.3 µM
How it was run: as §1

Olaparib = compound: O=C(c1cc(Cc2n[nH]c(=O)c3ccccc23)ccc1F)N1CCN(C(=O)C2CC2)CC1 [Olaparib]; conditions: max 10 µM
How it was run: as §1

Prexasertib = compound: COc1cccc(OCCCN)c1-c1cc(Nc2cnc(C#N)cn2)n[nH]1 [Prexasertib]; conditions: max 1 µM
How it was run: as §1

AZD4320 = compound: CN(CC[C@H](CSC1=CC=CC=C1)NC2=C(C=C(C=C2)S(=O)(=O)NC(=O)C3=CC=C(C=C3)N4CCC(CC4)[C@H](C5=CC=CC=C5C6=CC=C(C=C6)Cl)O)S(=O)(=O)C(F)(F)F)CCO [AZD4320]; conditions: max 1 µM
How it was run: as §1

Selumetinib = compound: Cn1cnc2c(F)c(Nc3ccc(Br)cc3Cl)c(C(=O)NOCCO)cc21 [Selumetinib]; conditions: max 10 µM
How it was run: as §1

Doxorubicin = compound: COc1cccc2c1C(=O)c1c(O)c3c(c(O)c1C2=O)C[C@@](O)(C(=O)CO)C[C@@H]3O[C@H]1C[C@H](N)[C@H](O)[C@H](C)O1 [Doxorubicin]; conditions: max 1 µM
How it was run: as §1

Trametinib = compound: CC(=O)Nc1cccc(-n2c(=O)n(C3CC3)c(=O)c3c(Nc4ccc(I)cc4F)n(C)c(=O)c(C)c32)c1 [Trametinib]; conditions: max 1 µM
How it was run: as §1

| Cell Line | IC50, cell viability 72 h (SG3199) [nM] | IC50, cell viability 72 h (Venetoclax) [nM] | IC50, cell viability 72 h (Taselisib) [nM] | IC50, cell viability 72 h (AZD0156) [nM] | IC50, cell viability 72 h (AZD8186) [nM] | IC50, cell viability 72 h (AZD7648) [nM] | IC50, cell viability 72 h (Capivasertib) [nM] | IC50, cell viability 72 h (AZD5991) [nM] | IC50, cell viability 72 h (AZD6738) [nM] | IC50, cell viability 72 h (Alisertib) [nM] | IC50, cell viability 72 h (Gefitinib) [nM] | IC50, cell viability 72 h (AZD5153) [nM] | IC50, cell viability 72 h (Crizotinib) [nM] | IC50, cell viability 72 h (SN-38) [nM] | IC50, cell viability 72 h (Dasatinib) [nM] | IC50, cell viability 72 h (Savolitinib) [nM] | IC50, cell viability 72 h (Palbociclib) [nM] | IC50, cell viability 72 h (AZD2811) [nM] | IC50, cell viability 72 h (AZD1775) [nM] | IC50, cell viability 72 h (Lapatinib) [nM] | IC50, cell viability 72 h (AZD1390) [nM] | IC50, cell viability 72 h (Olaparib) [nM] | IC50, cell viability 72 h (Prexasertib) [nM] | IC50, cell viability 72 h (AZD4320) [nM] | IC50, cell viability 72 h (Selumetinib) [nM] | IC50, cell viability 72 h (Doxorubicin) [nM] | IC50, cell viability 72 h (Trametinib) [nM] |
| --- | --- | --- | --- | --- | --- | --- | --- | --- | --- | --- | --- | --- | --- | --- | --- | --- | --- | --- | --- | --- | --- | --- | --- | --- | --- | --- | --- |
| OACp4C (Esophageal Adenocarcinoma) | > 1 | > 1000 | 93.1 | > 3000 | > 3000 | > 10000 | 1630 | > 1000 | 3030 | 1900 | > 10000 | 695 | 3560 | 104 | 180 | > 1000 | > 10000 | 618 | 342 | 2120 | > 300 | > 10000 | 116 | 117 | 5810 | 323 | 56.8 |
| NCI-H2228 (Lung Adenocarcinoma) | > 1 | > 1000 | 2010 | > 3000 | > 3000 | > 10000 | > 10000 | > 1000 | > 10000 | 8940 | > 10000 | > 1000 | 5480 | 82.4 | > 2000 | > 1000 | > 10000 | > 1000 | 2870 | > 10000 | > 300 | > 10000 | 182 | > 1000 | > 10000 | 557 | 955 |
| CESS (Acute Myeloid Leukemia) | > 1 | > 1000 | 7400 | > 3000 | 2140 | > 10000 | 4120 | > 1000 | 2080 | 107 | > 10000 | 297 | 4010 | 6.15 | 1400 | > 1000 | 8030 | > 1000 | 353 | > 10000 | > 300 | > 10000 | 12.2 | > 1000 | > 10000 | 237 | > 1000 |
